Target: T1, Vitronectin receptor αVβ3 (Homo sapiens, UniProt P05106+P06756)
T1 construct: expressed in transfected cells; host or cells: 512P5 cells (plasma membrane preparation)
Experiment: Vitronectin Receptor αVβ3 Binding Assay
Settings: read-out: VnR (IC50μM)

T1 sequence (P06756 31-889 limits assumed): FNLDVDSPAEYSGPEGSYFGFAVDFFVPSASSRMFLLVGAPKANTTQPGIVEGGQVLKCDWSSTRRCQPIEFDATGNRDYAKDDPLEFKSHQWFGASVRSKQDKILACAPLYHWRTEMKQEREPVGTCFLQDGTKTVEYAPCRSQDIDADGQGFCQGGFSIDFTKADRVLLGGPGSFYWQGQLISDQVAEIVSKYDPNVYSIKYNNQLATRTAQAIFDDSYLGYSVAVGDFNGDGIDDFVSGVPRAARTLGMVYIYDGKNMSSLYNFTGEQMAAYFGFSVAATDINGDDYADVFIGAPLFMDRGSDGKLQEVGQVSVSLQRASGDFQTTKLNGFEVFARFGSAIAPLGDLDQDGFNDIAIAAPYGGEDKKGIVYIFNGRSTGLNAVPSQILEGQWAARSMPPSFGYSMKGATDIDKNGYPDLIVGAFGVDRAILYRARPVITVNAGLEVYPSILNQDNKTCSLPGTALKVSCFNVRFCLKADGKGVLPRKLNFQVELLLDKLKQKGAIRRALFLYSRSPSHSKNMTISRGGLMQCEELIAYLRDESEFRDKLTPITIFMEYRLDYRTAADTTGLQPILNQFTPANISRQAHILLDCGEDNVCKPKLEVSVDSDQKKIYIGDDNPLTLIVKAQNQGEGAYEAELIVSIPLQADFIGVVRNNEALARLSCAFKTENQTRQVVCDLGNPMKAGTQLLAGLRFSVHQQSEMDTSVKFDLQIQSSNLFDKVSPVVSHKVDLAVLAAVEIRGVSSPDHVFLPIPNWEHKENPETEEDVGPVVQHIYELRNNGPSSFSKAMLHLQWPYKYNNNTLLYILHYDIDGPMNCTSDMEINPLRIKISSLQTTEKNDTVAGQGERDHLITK
T1 sequence (P06756 891-1048 partner limits assumed): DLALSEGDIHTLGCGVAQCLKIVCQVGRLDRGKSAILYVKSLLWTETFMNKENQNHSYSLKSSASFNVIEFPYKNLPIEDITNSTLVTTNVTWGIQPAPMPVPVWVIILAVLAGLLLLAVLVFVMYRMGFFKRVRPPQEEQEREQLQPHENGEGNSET
T1 sequence (P05106 27-788): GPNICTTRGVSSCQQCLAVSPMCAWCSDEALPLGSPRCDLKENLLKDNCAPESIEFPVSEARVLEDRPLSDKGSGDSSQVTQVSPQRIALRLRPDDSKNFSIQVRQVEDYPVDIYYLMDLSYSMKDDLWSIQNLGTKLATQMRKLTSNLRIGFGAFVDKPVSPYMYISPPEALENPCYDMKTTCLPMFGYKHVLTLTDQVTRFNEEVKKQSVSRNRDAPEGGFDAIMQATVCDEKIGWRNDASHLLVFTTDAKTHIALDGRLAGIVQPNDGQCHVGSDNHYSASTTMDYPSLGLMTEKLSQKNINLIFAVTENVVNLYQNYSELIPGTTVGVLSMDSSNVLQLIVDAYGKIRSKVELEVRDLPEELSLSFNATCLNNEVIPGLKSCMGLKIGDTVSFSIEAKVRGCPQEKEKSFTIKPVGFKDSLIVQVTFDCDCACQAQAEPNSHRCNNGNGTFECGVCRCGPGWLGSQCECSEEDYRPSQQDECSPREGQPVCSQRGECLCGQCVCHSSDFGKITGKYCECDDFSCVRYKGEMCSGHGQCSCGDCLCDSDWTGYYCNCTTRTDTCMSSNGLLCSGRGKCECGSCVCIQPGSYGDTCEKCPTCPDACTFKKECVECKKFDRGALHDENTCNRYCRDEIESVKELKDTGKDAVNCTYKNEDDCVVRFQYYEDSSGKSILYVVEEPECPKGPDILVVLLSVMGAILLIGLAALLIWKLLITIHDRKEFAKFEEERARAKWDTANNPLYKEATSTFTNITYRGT

SMILES	IC50
CC(C)(C)COC(=O)N[C@@H](CNC(=O)c1ccc(OCCNC2=NCCCN2)cc1O)C(=O)O [Example 1, (2S)-3-({2-hydroxy-4-[2-(1,4,5,6-tetrahydropyrimidin-2-ylamino)ethoxy]benzoyl}amino)-2-{[(neopentyloxy)carbonyl]amino}propanoic acid]	0.0241 µM
COC(=O)N[C@@H](CNC(=O)c1ccc(OCCNC2=NCCCN2)cc1O)C(=O)O [Example 2, (2S)-3-({2-hydroxy-4-[2-(1,4,5,6-tetrahydropyrimidin-2-ylamino)ethoxy]benzoyl}-amino)-2-[(methoxycarbonyl)amino]propanoic acid]	0.187 µM
CCOC(=O)N[C@@H](CNC(=O)c1ccc(OCCNC2=NCCCN2)cc1O)C(=O)O [Example 3, (2S)-2-[(ethoxycarbonyl)amino]-3-({2-hydroxy-4-[2-(1,4,5,6-tetrahydropyrimidin-2ylamino)ethoxy]benzoyl}amino)propanoic acid]	0.123 µM
CCCOC(=O)N[C@@H](CNC(=O)c1ccc(OCCNC2=NCCCN2)cc1O)C(=O)O [Example 4, (2S)-3-({2-hydroxy-4-[2-(1,4,5,6-tetrahydropyrimidin-2-ylamino)ethoxy]benzoyl}-amino)-2-[(propoxycarbonyl)amino]propanoic acid]	0.095 µM
CC(C)OC(=O)N[C@@H](CNC(=O)c1ccc(OCCNC2=NCCCN2)cc1O)C(=O)O [Example 5, (2S)-3-({2-hydroxy-4-[2-(1,4,5,6-tetrahydropyrimidin-2-ylamino)ethoxy]benzoyl}-amino)-2-[(isopropoxycarbonyl)amino]propanoic acid]	0.061 µM
C=CCOC(=O)N[C@@H](CNC(=O)c1ccc(OCCNC2=NCCCN2)cc1O)C(=O)O [Example 6, (2S)-2-{[(allyloxy)carbonyl]amino}-3-({2-hydroxy-4-[2-(1,4,5,6-tetrahydropyrimidin-2-ylamino)ethoxy]benzoyl}amino)propanoic acid]	0.108 µM
C=CCCOC(=O)N[C@@H](CNC(=O)c1ccc(OCCNC2=NCCCN2)cc1O)C(=O)O [Example 7, (2S)-2-{[(but-3-enyloxy)carbonyl]amino}-3-({2-hydroxy-4-[2-(1,4,5,6-tetrahydropyrimidin-2-ylamino)ethoxy]benzoyl}amino)propanoic acid]	0.092 µM
CCCCCCOC(=O)N[C@@H](CNC(=O)c1ccc(OCCNC2=NCCCN2)cc1O)C(=O)O [Example 8, (2S)-2-{[(hexyloxy)carbonyl]amino}-3-({2-hydroxy-4-[2-(1,4,5,6-tetrahydropyrimidin-2-ylamino)ethoxy]benzoyl}amino)propanoic acid]	> 1 µM
CCCCCCCCOC(=O)N[C@@H](CNC(=O)c1ccc(OCCNC2=NCCCN2)cc1O)C(=O)O [Example 9, (2S)-3-({2-hydroxy-4-[2-(1,4,5,6-tetrahydropyrimidin-2-ylamino)ethoxy]benzoyl}-amino)-2-{[(octyloxy)carbonyl]amino}propanoic acid]	0.11 µM
O=C(N[C@@H](CNC(=O)c1ccc(OCCNC2=NCCCN2)cc1O)C(=O)O)OCC(Cl)(Cl)Cl [Example 10, (2S)-3-({2-hydroxy-4-[2-(1,4,5,6-tetrahydropyrimidin-2-ylamino)ethoxy]-benzoyl}amino)-2-{[(2,2,2-trichloroethoxy)carbonyl]amino}propanoic acid]	0.061 µM
CCCCOC(=O)N[C@@H](CNC(=O)c1ccc(OCCNC2=NCCCN2)cc1O)C(=O)O [Example 11, (2S)-3-({2-hydroxy-4-[2-(1,4,5,6-tetrahydropyrimidin-2-ylamino)ethoxy]-benzoyl}amino)-2-[(butoxycarbonyl)amino]propanoic acid]	0.0696 µM
CC(C)COC(=O)N[C@@H](CNC(=O)c1ccc(OCCNC2=NCCCN2)cc1O)C(=O)O [Example 12, (2S)-3-({2-hydroxy-4-[2-(1,4,5,6-tetrahydropyrimidin-2-ylamino)ethoxy]benzoyl}-amino)-2-[(isobutoxycarbonyl)amino]propanoic acid]	0.0661 µM
C#CCOC(=O)N[C@@H](CNC(=O)c1ccc(OCCNC2=NCCCN2)cc1O)C(=O)O [Example 13, (2S)-3-({2-hydroxy-4-[2-(1,4,5,6-tetrahydropyrimidin-2-ylamino)ethoxy]benzoyl}-amino)-2-{[(prop-2-ynyloxy)carbonyl]amino}propanoic acid]	0.183 µM
O=C(N[C@@H](CNC(=O)c1ccc(OCCNC2=NCCCN2)cc1O)C(=O)O)OCc1ccccc1 [Example 14, (2S)-2-{[(benzyloxy)carbonyl]amino}-3-({2-hydroxy-4-[2-(1,4,5,6-tetrahydropyrimidin-2-ylamino)ethoxy]benzoyl}amino)propanoic acid]	0.0445 µM
O=C(Nc1ccccc1)N[C@@H](CNC(=O)c1ccc(OCCNC2=NCCCN2)cc1O)C(=O)O [Example 20, (2S)-2-[(anilinocarbonyl)amino]-3-({2-hydroxy-4-[2-(1,4,5,6-tetrahydropyrimidin-2-ylamino)ethoxy]benzoyl}amino)propanoic acid]	1.44 µM
O=C(NC1CCCCC1)N[C@@H](CNC(=O)c1ccc(OCCNC2=NCCCN2)cc1O)C(=O)O [Example 21, (2S)-2-{[(cyclohexylamino)carbonyl]amino}-3-({2-hydroxy-4-[2-(1,4,5,6-tetrahydropyrimidin-2-ylamino)ethoxy]benzoyl}amino)propanoic acid]	1.52 µM

SMILES	IC50
Cc1ccc(NC(=O)N[C@@H](CNC(=O)c2ccc(OCCNC3=NCCCN3)cc2O)C(=O)O)cc1 [Example 23, (2S)-3-({2-hydroxy-4-[2-(1,4,5,6-tetrahydropyrimidin-2-ylamino)ethoxy]benzoyl}-amino)-2-[(4-toluidinocarbonyl)amino]propanoic acid]	1.02 µM
Cc1ccccc1NC(=O)N[C@@H](CNC(=O)c1ccc(OCCNC2=NCCCN2)cc1O)C(=O)O [Example 24, (2S)-3-({2-hydroxy-4-[2-(1,4,5,6-tetrahydropyrimidin-2-ylamino)ethoxy]benzoyl}-amino)-2-[(2-toluidinocarbonyl)amino]propanoic acid]	1.48 µM
COc1ccccc1NC(=O)N[C@@H](CNC(=O)c1ccc(OCCNC2=NCCCN2)cc1O)C(=O)O [Example 25, (2S)-3-({2-hydroxy-4-[2-(1,4,5,6-tetrahydropyrimidin-2-ylamino)ethoxy]benzoyl}-amino)-2-{[(2-methoxyanilino)carbonyl]amino}propanoic acid]	0.674 µM
O=C(Nc1ccccc1Cl)N[C@@H](CNC(=O)c1ccc(OCCNC2=NCCCN2)cc1O)C(=O)O [Example 27, (2S)-2-{[(2-chloroanilino)carbonyl]amino}-3-({2-hydroxy-4-[2-(1,4,5,6-tetrahydropyrimidin-2-ylamino)ethoxy]benzoyl}amino)propanoic acid]	0.331 µM
O=C(Nc1ccccc1Br)N[C@@H](CNC(=O)c1ccc(OCCNC2=NCCCN2)cc1O)C(=O)O [Example 28, (2S)-2-{[(2-bromoanilino)carbonyl]amino}-3-({2-hydroxy-4-[2-(1,4,5,6-tetrahydropyrimidin-2-ylamino)ethoxy]benzoyl}amino)propanoic acid]	0.159 µM
O=C(Nc1ccccc1-c1ccccc1)N[C@@H](CNC(=O)c1ccc(OCCNC2=NCCCN2)cc1O)C(=O)O [Example 29, (2S)-2-{[([1,1′-biphenyl]-2-ylamino)carbonyl]amino}-3-({2-hydroxy-4-[2-(1,4,5,6-tetrahydropyrimidin-2-ylamino)ethoxy]benzoyl}amino)propanoic acid]	0.405 µM
O=C(Nc1ccc(Cl)cc1)N[C@@H](CNC(=O)c1ccc(OCCNC2=NCCCN2)cc1O)C(=O)O [Example 30, (2S)-2-{[(4-chloroanilino)carbonyl]amino}-3-({2-hydroxy-4-[2-(1,4,5,6-tetrahydropyrimidin-2-ylamino)ethoxy]benzoyl}amino)propanoic acid]	1.27 µM
O=C(Nc1cccc2ccccc12)N[C@@H](CNC(=O)c1ccc(OCCNC2=NCCCN2)cc1O)C(=O)O [Example 31, (2S)-3-({2-hydroxy-4-[2-(1,4,5,6-tetrahydropyrimidin-2-ylamino)ethoxy]benzoyl}-amino)-2-{[(1-naphthylamino)carbonyl]amino}propanoic acid]	0.261 µM
CC(C)(C)COC(=O)N[C@@H](CNC(=O)c1ccc(OCCNc2ncccn2)cc1O)C(=O)O [Example 53, (2S)-3-({2-hydroxy-4-[2-(pyrimidin-2-ylamino)ethoxy]benzoyl}-amino)-2-{[(neopentyloxy)carbonyl]amino}propanoic acid]	34 µM
O=C(N[C@@H](CNC(=O)c1ccc(OCCNc2ncccn2)cc1O)C(=O)O)Oc1ccccc1 [Example 54, (2S)-3-({2-hydroxy-4-[2-(pyrimidin-2-ylamino)ethoxy]benzoyl}amino)-2-[(phenoxycarbonyl)amino]propanoic acid]	34 µM
O=C(N[C@@H](CNC(=O)c1ccc(OCCNc2ncccn2)cc1O)C(=O)O)OCc1ccccc1 [Example 55, (2S)-2-{[(benzyloxy)carbonyl]amino}-3-({2-hydroxy-4-[2-(pyrimidin-2-ylamino)ethoxy]benzoyl}amino)propanoic acid]	101 µM
CC(C)COC(=O)N[C@@H](CNC(=O)c1ccc(OCCNc2ncccn2)cc1O)C(=O)O [Example 56, (2S)-3-({2-hydroxy-4-[2-(pyrimidin-2-ylamino)ethoxy]benzoyl}amino)-2-[(isobutoxycarbonyl)amino]propanoic acid]	85.8 µM
CCCCCCCCOC(=O)N[C@@H](CNC(=O)c1ccc(OCCNc2ncccn2)cc1O)C(=O)O [Example 58, (2S)-3-({2-hydroxy-4-[2-(pyrimidin-2-ylamino)ethoxy]benzoyl}amino)-2-{[(octyloxy)carbonyl]amino}propanoic acid]	100 µM
CCCCOC(=O)N[C@@H](CNC(=O)c1ccc(OCCNc2ncccn2)cc1O)C(=O)O [Example 59, (2S)-2-[(butoxycarbonyl)amino]-3-({2-hydroxy-4-[2-(pyrimidin-2-ylamino)ethoxy]benzoyl}amino)propanoic acid]	100 µM
CCCCCCOC(=O)N[C@@H](CNC(=O)c1ccc(OCCNc2ncccn2)cc1O)C(=O)O [Example 62, (2S)-2-{[(hexyloxy)carbonyl]amino}-3-({2-hydroxy-4-[2-(pyrimidin-2-ylamino)-ethoxy]benzoyl}amino)propanoic acid]	100 µM
